Experimental data reported in publication PMC11483813, “Bombesin-Targeted Delivery of β-Carboline-Based Ir(III) and Ru(II) Photosensitizers for a Selective Photodynamic Therapy of Prostate Cancer” (Inorganic Chemistry, 2024).

How the values were obtained:
[1] = pKa determination from emission intensity versus pH; type: physicochemical; conditions: H2O:DMSO (99:1), 10^–5 M, 25 °C
Text: Ir-H and Ru-H are susceptible to deprotonation in aqueous media due to the presence of the acidic −COOH group. In fact, the actual protonation state of these complexes at the different physiological pH values defines their global charge and correspondingly influences their solubility, their photophysical properties, and their cellular uptake.[45]−[47] Thus, the pKa values of Ir-H and Ru-H in their excited states were experimentally determined by monitoring the variations of their emission intensity at specific wavelengths versus different pH values and fitting the data (Iem,λ/pH) to a sigmoidal equation. In good agreement with similar complexes reported in the literature,[45],[46] there was a gradual decrease in the emission intensity of Ir-H and Ru-H with decreasing pH (Figures 4 and S50). […] These values can be considered as an acceptable approximation to the values of the respective ground states. Therefore, we concluded that Ir-H and Ru-H adopt their deprotonated zwitterionic forms in the whole range of physiological pHs. This means that Ir-H assumes a zwitterionic neutral form, while Ru-H adopts a zwitterionic monocationic structure. In both cases, there is charge separation, and as a result, we predict that the cellular uptake ability of these complexes could be reduced, in comparison to that of their relatives Ir-Me and Ru-Me.
Figure 4 pKa determination. […]

[2] = test system: PC-3 cells; assay: Intracellular ROS generation (H2DCFDA, flow cytometry); type: cell-based, human; conditions: IC50,light 4 h, blue light 1 h
Protocol: The photocytotoxic effects of the complexes and metallopeptides were further elucidated by evaluating their ability to photogenerate ROS at the cellular level. PC-3 cells were treated with the compounds at the respective IC50,light and irradiated with blue light. Subsequently, ROS generation was measured using the 2′,7′-dichlorodihydrofluorescein diacetate (H2DCFDA) probe, which diffuses into cells and is oxidized by ROS to produce a green fluorescent signal. […] Nevertheless, to ascertain the potential contributions of other ROS to the photocytotoxic activity, the capacity of the compounds to undergo type I PDT processes, resulting in the production of superoxide anions (O2^•–), was examined using a specific fluorescent probe that emits an orange signal upon interaction with this radical. […]
Figure 9 Intracellular ROS generation. […] The elevation of general ROS (A) and superoxide anion (B) levels was determined with specific probes by flow cytometry. […]
PC-3 cells were seeded at a density of 100000 cells per well in 12-well plates and incubated overnight. […] Cells were subsequently harvested by trypsinization, and the median fluorescence emission of 10000 cells was measured using a Novocyte flow cytometer equipped with NovoExpress software. The fluorescence fold increase relative to untreated control cells was calculated. […]

SMILES	pKa (excited state) [1]	ROS levels, fold increase versus control cells [2]
Cn1c2ccccc2c2ccnc(-c3ccc(/C=C/C(=O)O)cn3)c21.[Cl-].[Ir+3].[c-]1ccccc1-c1ccccn1.[c-]1ccccc1-c1ccccn1 [Ir-H]	3.81	–
COC(=O)/C=C/c1ccc(-c2nccc3c4ccccc4n(C)c23)nc1.[Cl-].[Ir+3].[c-]1ccccc1-c1ccccn1.[c-]1ccccc1-c1ccccn1 [Ir-Me]	–	4.5 fold
Cn1c2ccccc2c2ccnc(-c3ccc(/C=C/C(=O)O)cn3)c21.[Cl-].[Cl-].[Ru+2].c1ccc(-c2ccccn2)nc1.c1ccc(-c2ccccn2)nc1 [Ru-H]	4.51	–
